Reference: patent US20110046227A1, “METHODS FOR CONCOMITANT ADMINISTRATION OF […] A SECOND ACTIVE AGENT” (MUTUAL PHARMACEUTICAL COMPANY, INC., priority 2009, published 2011)
Read-outs that look alike come from different tables or passages of the source.

Experiment: Pharmacokinetic study in healthy adults of single vs. multiple oral doses of colchicine tablets (Example 1);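 also: Single-dose and multiple-dose periods given to the same subjects, with a 14-day washout between the two periods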
Format: in vivo, human
Conditions: for Vd/F / half-life / Tmax / AUC(0-inf) / AUC(0-t) / AUC / Cmax: human, plasma, 0.6 mg; for Vd/F: Vd = CL/Ke, calculated from mean values, read-out: Vd/F, Mean (% CV)
[1] = multiple (b.i.d.) oral doses colchicine 0.6 mg for 10 days, Day 25, healthy adults N=13, plasma, median

Description: Subjects received a light breakfast served 60 minutes following dose administration in the morning and the evening dose was administered 90 minutes after an evening meal on Days 15 through 24 only. […] Study periods were separated by a 14-day washout. Following the single dose and the last dose of the multiple dose regimen (beginning on the mornings of Day 1 and Day 25, respectively), blood samples were collected (6 mL each) from each subject within 1 hour prior to dosing and after dose administration at study hours 0.5, 1, 1.5, 2, 3, 4, 6, 8, 10, 12, and 24 (while confined) and 36, 48, 72, and 96 (on an outpatient basis).
All subjects completed both dosing periods according to protocol.
In tables, the parameter CL/F denotes the apparent total body clearance after administration, calculated as Total Dose/Total AUC0-tau; and Vd/F denotes the apparent total volume of distribution after administration, calculated as Total Dose/(Total AUC∞×Kel).
Pharmacokinetic parameters referred to herein describe the in vivo characteristics of drug (or a metabolite or a surrogate marker for the drug) over time. These include plasma concentration (C), as well as Cmax, Cn, C24, Tmax, and AUC. “Cmax” is the measured plasma concentration of the active agent at the point of maximum, or peak, concentration. “Cmin” is the measured plasma concentration of the active agent at the point of minimum concentration. “Cn” is the measured plasma concentration of the active agent at about n hours after administration. […] The term “Tmax” refers to the time from drug administration until Cmax is reached. “AUC” is the area under the curve of a graph of the measured plasma concentration of an active agent vs. time, measured from one time point to another time point. […] Time t can be the last time point with measurable plasma concentration for an individual formulation. The AUC0-∞, AUC∞ or AUC0-inf is the calculated area under the curve of plasma concentration versus time from time 0 to time infinity.

Structure (SMILES): COc1cc2c(c(OC)c1O)-c1ccc(OC)c(=O)cc1[C@@H](NC(C)=O)CC2 [2-O-demethylcolchicine]
- metabolite plasma concentration (after colchicine 0.6 mg single and multiple doses, LOQ 0.2 ng/mL, 13 subjects): < 0.2 ng/mL

Structure (SMILES): COc1cc2c(c(OC)c1OC)-c1ccc(OC)c(=O)cc1[C@@H](NC(C)=O)CC2 [Colchicine, (−)-N-[(7S,12aS)-1,2,3,10-tetramethoxy-9-oxo-5,6,7,9-tetrahydrobenzo[a]heptalen-7-yl]-acetamide]
- attainment of steady state (trough plasma concentrations) (0.6 mg b.i.d., most subjects): by approximately the eighth day of dosing
- elimination half-life (calculated following a single oral dose, stated not to be an accurate estimate): approximately 5 hours
- secondary colchicine peak (following a single dose or upon multiple dosing, individual subject data): no subject experienced a secondary colchicine peak
- apparent volume of distribution (healthy adults, oral, single dose): 540 L
- Vd/F (oral, colchicine 0.6 mg b.i.d. × 10 days, Day 25): 1150 L
- Vd/F (oral, colchicine 0.6-mg single dose, Day 1, N=13): 341 L
- half-life (oral, repeated dosing 0.6 mg b.i.d., read-out: terminal elimination half life (converted)): 26.6 h
- half-life (po, multiple (b.i.d.) oral doses colchicine 0.6 mg for 10 days, Day 25, healthy adults N=13, mean, read-out: T1/2, MEAN (converted)): 26.6 h
- Tmax (po, multiple (b.i.d.) oral doses colchicine 0.6 mg for 10 days, Day 25, healthy adults N=13, mean, read-out: Tmax, MEAN): 1.31 h
- half-life (po, multiple (b.i.d.) oral doses colchicine 0.6 mg for 10 days, Day 25, healthy adults N=13, median, read-out: T1/2, MEDIAN (converted)): 26.5 h
- Tmax (po, multiple (b.i.d.) oral doses colchicine 0.6 mg for 10 days, Day 25, healthy adults N=13, median, read-out: Tmax, MEDIAN): 1 h
- AUC(0-inf) (po, multiple (b.i.d.) oral doses colchicine 0.6 mg for 10 days, Day 25, healthy adults N=13, plasma, mean, read-out: AUC0-inf, MEAN): 54.2 ng·h/mL
- AUC(0-t) (po, multiple (b.i.d.) oral doses colchicine 0.6 mg for 10 days, Day 25, healthy adults N=13, plasma, mean, read-out: AUC0-t, MEAN): 43.6 ng·h/mL
- AUC (po, multiple (b.i.d.) oral doses colchicine 0.6 mg for 10 days, Day 25, healthy adults N=13, plasma, mean, read-out: AUC0-τ, MEAN): 20.4 ng·h/mL
- Cmax (po, multiple (b.i.d.) oral doses colchicine 0.6 mg for 10 days, Day 25, healthy adults N=13, plasma, mean, read-out: Cmax, MEAN): 3.55 ng/mL
- AUC(0-inf) (po, multiple (b.i.d.) oral doses colchicine 0.6 mg for 10 days, Day 25, healthy adults N=13, plasma, median, read-out: AUC0-inf, MEDIAN): 54.1 ng·h/mL
- AUC(0-t) (po, multiple (b.i.d.) oral doses colchicine 0.6 mg for 10 days, Day 25, healthy adults N=13, plasma, median, read-out: AUC0-t, MEDIAN): 41.9 ng·h/mL
- AUC (po, multiple (b.i.d.) oral doses colchicine 0.6 mg for 10 days, Day 25, healthy adults N=13, plasma, median, read-out: AUC0-τ, MEDIAN): 20.4 ng·h/mL
- Cmax (po, multiple (b.i.d.) oral doses colchicine 0.6 mg for 10 days, Day 25, healthy adults N=13, plasma, median, read-out: Cmax, MEDIAN): 3.73 ng/mL
- half-life (po, single oral dose colchicine 0.6 mg, healthy adults N=13, mean, read-out: T1/2, MEAN (converted)): 4.95 h
- half-life (po, single oral dose colchicine 0.6 mg, healthy adults N=13, median, read-out: T1/2, MEDIAN (converted)): 3.48 h
- Tmax (po, single oral dose colchicine 0.6 mg, healthy adults N=13, median, read-out: Tmax, MEDIAN): 1.5 h
- AUC(0-inf) (po, single oral dose colchicine 0.6 mg, healthy adults N=13, plasma, mean, read-out: AUC0-inf, MEAN): 12.3 ng·h/mL
- AUC(0-t) (po, single oral dose colchicine 0.6 mg, healthy adults N=13, plasma, mean, read-out: AUC0-t, MEAN): 10.5 ng·h/mL
- Cmax (po, single oral dose colchicine 0.6 mg, healthy adults N=13, plasma, mean, read-out: Cmax, MEAN): 2.45 ng/mL
- AUC(0-inf) (po, single oral dose colchicine 0.6 mg, healthy adults N=13, plasma, median, read-out: AUC0-inf, MEDIAN): 11.5 ng·h/mL
- AUC(0-t) (po, single oral dose colchicine 0.6 mg, healthy adults N=13, plasma, median, read-out: AUC0-t, MEDIAN): 10.6 ng·h/mL
- Cmax (po, single oral dose colchicine 0.6 mg, healthy adults N=13, plasma, median, read-out: Cmax, MEDIAN): 2.48 ng/mL
- Kel, MEAN (multiple (b.i.d.) oral doses colchicine 0.6 mg for 10 days, Day 25, healthy adults N=13, mean): 0.0267 h⁻¹
- Kel, MEDIAN (multiple (b.i.d.) oral doses colchicine 0.6 mg for 10 days, Day 25, healthy adults N=13, median): 0.0261 h⁻¹
- Cave, MEAN (multiple (b.i.d.) oral doses colchicine 0.6 mg for 10 days, Day 25, healthy adults N=13, plasma, mean): 1.69722 ng/mL
- Cave, MEDIAN [1]: 1.70192 ng/mL
- Cmin, MEDIAN [1]: 0.9035 ng/mL
- mean Cmin concentration (observed on Day 25, 0.6 mg b.i.d. steady state regimen): 0.907 ng/mL
- plasma concentrations quantifiable after a single dose (single dose 0.6 mg, 24 hours post-dose): no longer quantifiable 24 hours post-dose in all but 1 subject
- Kel, MEAN (single oral dose colchicine 0.6 mg, healthy adults N=13, mean): 0.1829 h⁻¹
- Kel, MEDIAN (single oral dose colchicine 0.6 mg, healthy adults N=13, median): 0.1992 h⁻¹
- Cmin prior to the morning dose higher than Cmin prior to the evening dose (steady state, Day 23 and Day 24): approximately 12%
